Experimental findings from ChEMBL document CHEMBL3046746, “Introduction to Receptors in Aging Diseases: GABA Receptors” (Med Chem Res, 2004) are described below.

Test [1] is filed under the species Homo sapiens. Briefly: Selectivity ratio of Ki for GABAA alpha2beta3gamma2 (unknown origin) to Ki for GABAA alpha5beta3gamma2 (unknown origin).
Test [2] concerns the target GABA-A receptor; alpha-2/beta-3/gamma-2 (Homo sapiens) (UniProt P18507+P28472+P47869). The test is described as follows: Antagonist activity at GABAA alpha2beta3gamma2 in Homo sapiens (human) L(tk-) cells by patch clamp assay relative to GABA. For orientation: Patch clamp records ionic current or voltage across a cell membrane.
Test [3] addresses T1, GABA-A receptor; alpha-5/beta-3/gamma-2 (Homo sapiens, UniProt P18507+P28472+P31644).
T1 sequence (P18507 whole entry): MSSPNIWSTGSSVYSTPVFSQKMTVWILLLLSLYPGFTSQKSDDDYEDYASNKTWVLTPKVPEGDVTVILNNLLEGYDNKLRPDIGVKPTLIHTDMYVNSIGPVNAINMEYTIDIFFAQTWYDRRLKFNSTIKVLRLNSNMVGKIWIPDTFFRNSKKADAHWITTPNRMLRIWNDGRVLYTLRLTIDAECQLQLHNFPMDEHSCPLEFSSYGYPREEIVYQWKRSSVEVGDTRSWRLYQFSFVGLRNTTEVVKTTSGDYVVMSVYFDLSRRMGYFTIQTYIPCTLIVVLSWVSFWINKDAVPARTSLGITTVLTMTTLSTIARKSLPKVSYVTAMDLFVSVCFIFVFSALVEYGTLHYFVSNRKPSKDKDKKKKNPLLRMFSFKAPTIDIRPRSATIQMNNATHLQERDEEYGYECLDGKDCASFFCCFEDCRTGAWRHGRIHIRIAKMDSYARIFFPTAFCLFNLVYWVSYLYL
T1 sequence (P28472 whole entry): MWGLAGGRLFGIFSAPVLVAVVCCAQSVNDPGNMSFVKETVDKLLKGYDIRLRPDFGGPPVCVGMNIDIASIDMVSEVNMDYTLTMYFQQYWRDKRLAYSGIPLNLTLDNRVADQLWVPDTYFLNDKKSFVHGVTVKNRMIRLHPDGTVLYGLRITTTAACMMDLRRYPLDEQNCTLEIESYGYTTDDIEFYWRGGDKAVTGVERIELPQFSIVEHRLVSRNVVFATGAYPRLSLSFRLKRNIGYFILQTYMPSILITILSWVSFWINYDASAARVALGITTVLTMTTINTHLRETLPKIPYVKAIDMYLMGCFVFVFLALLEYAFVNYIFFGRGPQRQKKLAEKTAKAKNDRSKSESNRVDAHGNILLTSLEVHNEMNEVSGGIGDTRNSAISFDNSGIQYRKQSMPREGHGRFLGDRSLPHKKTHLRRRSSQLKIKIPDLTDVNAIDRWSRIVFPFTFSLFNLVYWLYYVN
T1 sequence (P31644 whole entry): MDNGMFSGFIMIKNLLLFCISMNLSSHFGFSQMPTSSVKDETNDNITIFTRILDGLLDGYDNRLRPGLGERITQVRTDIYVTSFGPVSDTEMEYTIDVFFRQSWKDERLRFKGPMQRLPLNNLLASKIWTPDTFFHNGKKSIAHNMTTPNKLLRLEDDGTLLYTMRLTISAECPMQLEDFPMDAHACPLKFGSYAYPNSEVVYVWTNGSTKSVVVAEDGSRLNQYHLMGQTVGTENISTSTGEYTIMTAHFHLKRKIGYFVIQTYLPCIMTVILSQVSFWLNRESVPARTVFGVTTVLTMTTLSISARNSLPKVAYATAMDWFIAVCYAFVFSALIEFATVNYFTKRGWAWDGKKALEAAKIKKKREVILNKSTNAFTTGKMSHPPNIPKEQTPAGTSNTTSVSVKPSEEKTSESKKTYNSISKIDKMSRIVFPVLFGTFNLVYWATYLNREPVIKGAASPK
The test is described as follows: Inverse agonist activity at GABAA alpha5beta3gamma2 in Homo sapiens (human) L(tk-) cells by patch clamp assay.

The subject of test [4] is Rattus norvegicus. Briefly: Cognitive enhancing effect in Rattus norvegicus (rat) at 0.3 mg/kg, ip by water maze test. Type of test: functional, organism-based. On the set-up: dose 0.3 mg/kg.
For test [5], the species on record is Homo sapiens. Briefly: Selectivity ratio of Ki for GABA-Aalpha1beta3gamma2 (unknown origin) to Ki for GABAA alpha5beta3gamma2 (unknown origin).
Test [6] deals with T2, Gamma-aminobutyric acid receptor subunit alpha-3/ beta-3/gamma-3 (Homo sapiens, UniProt P28472+P34903+Q99928).
T2 sequence (P28472 whole entry): T1 sequence (P28472 whole entry)
T2 sequence (Q99928 whole entry): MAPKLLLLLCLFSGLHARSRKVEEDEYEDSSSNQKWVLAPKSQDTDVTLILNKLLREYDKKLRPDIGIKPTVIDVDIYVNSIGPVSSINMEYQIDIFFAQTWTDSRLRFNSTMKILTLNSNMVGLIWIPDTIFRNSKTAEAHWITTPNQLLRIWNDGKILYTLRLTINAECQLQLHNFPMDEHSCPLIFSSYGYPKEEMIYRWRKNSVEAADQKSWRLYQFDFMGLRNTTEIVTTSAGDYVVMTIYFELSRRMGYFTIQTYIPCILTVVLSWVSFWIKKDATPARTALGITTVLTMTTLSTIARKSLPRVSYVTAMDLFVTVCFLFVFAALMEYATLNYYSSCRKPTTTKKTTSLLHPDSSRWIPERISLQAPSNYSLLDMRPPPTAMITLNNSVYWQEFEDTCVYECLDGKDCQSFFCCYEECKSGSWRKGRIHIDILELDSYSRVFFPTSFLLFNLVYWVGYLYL
T2 sequence (P34903 whole entry): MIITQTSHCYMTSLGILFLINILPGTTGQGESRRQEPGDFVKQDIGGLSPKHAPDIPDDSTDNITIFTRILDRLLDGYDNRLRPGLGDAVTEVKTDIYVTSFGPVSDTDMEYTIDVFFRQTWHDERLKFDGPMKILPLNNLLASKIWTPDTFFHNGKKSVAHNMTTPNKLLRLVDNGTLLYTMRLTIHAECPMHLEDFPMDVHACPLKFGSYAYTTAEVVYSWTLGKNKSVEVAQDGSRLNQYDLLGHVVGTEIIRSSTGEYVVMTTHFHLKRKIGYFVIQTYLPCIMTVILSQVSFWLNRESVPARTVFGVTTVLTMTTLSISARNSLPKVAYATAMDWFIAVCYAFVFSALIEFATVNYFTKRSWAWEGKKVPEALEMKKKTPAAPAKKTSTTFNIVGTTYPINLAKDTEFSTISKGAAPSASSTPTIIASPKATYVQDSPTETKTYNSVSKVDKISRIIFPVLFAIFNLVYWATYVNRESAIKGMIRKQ
The test is described as follows: Binding affinity to GABAA alpha3beta3gamma3 (unknown origin). Type of test: protein-complex assay.

Test [7] concerns Rattus norvegicus. The test is described as follows: In vivo GABAA alpha5beta3gamma2 receptor occupancy in Rattus norvegicus (rat) assessed as inhibition of [3H]L-655,708 binding at 0.3 mg/kg, ip. It is filed as functional. As to conditions: route intraperitoneal.
Test [8] concerns the target GABA-A receptor; alpha-1/beta-3/gamma-2 (Homo sapiens) (UniProt P14867+P18507+P28472). Briefly: Modulation of GABA-Aalpha1beta3gamma2 in Homo sapiens (human) L(tk-) cells relative to GABA.
In test [9] the target is GABA-A receptor; alpha-5/beta-3/gamma-2 (Homo sapiens) (UniProt P18507+P28472+P31644). The test is described as follows: Modulation of GABAA alpha5beta3gamma2 in Homo sapiens (human) L(tk-) cells patch clamp assay relative to GABA.
Test [10] is filed under the species Homo sapiens. Briefly: Selectivity ratio of Ki for GABAA alpha3beta3gamma3 (unknown origin) to Ki for GABAA alpha5beta3gamma2 (unknown origin).
In test [11] the target is Gamma-aminobutyric acid receptor subunit alpha-3/ beta-3/gamma-3 (Homo sapiens) (UniProt P28472+Q99928+P34903). The test is described as follows: Antagonist activity at GABAA alpha3beta3gamma3 in Homo sapiens (human) L(tk-) cells relative to GABA.

The source made the active and inactive calls. No cut-off for these calls is given here.

For orientation: EC50 means the midpoint of the concentration-response curve. Read a high EC50 as weaker potency. Usually Ki stands for a measure of affinity in units of concentration, obtained from inhibition or displacement. Read a high Ki as a looser hold on the target. What is called Emax is the maximal effect, on the per cent scale that the assay sets. Take `CC1(C)CC(=O)c2c(SCCO)sc(-c3nccs3)c2C1`: the Ratio Ki in the test listed under Homo sapiens [1], in the test filed under Homo sapiens [5] and in the test filed under Homo sapiens [10] was 10 in each case. Besides, the result (in test [2]; in the test with Rattus norvegicus [4]; in test [11]) was Active. Besides, in test [3], the EC50 turned out to be 0.7 nM. The molecule further yielded a Ki in test [6] of 20 nM. Further, the Occ with Rattus norvegicus [7] came to 40%. Moreover, in test [8], the Efficacy is -21%. The Emax in test [9] is -51%.
